The text below walks through data of US20140364438A1, “TRIAZOLOPYRIDINE DERIVATIVES AS A TYROSINE KINASE INHIBITOR” (HANMI PHARM. CO., LTD., priority 2012, published 2014).

The structures appear in SMILES notation. Some results are limits rather than exact numbers.

Experiment [1] has as its target T1, JAK3 (Homo sapiens, UniProt P52333).
T1 construct: purchased Invitrogen PV3855
Briefly: JAK3 kinase inhibitory activity, Z-Lyte Kinase Assay Kit. The experiment is classed as biochemical. The following applies: 60 minutes at room temperature. The protocol: (§1) The compounds prepared in Examples 1 to 5 were tested for JAK3 and BTK kinase inhibitory activity. Kinase inhibitory activity was measured by using Z-Lyte Kinase Assay Kit (Invitrogen), and JAK3 and BTK enzymes were purchased from Invitrogen (PV3855, PV3190).
(§2) Specifically, the compounds of Examples 1 to 5 were diluted with an aqueous solution of 4% DMSO to obtain solutions with concentrations in the range of 1 to 0.0001 μM. Each kinase was diluted to 1 to 10 ng/assay, and ATP was diluted to form a kinase buffer (50 mM HEPES, pH 7.4; 10 mM MgCl2; 1 mM EGTA; and 0.01% BRIJ-35) by calculating an approximate Kd value. The assays were performed in 384-well polystyrene flat-bottomed plates. Peptide substrate having a suitable concentration, 10 μL of mixed kinase solution and 5 μL of ATP solution having a concentration of 5 to 300 μM were added to 5 μL of the diluted solution of the compound, and allowed to react in a mixer for 60 minutes at room temperature. After 60 minutes, 10 μL of fluorescent labeling reagents was added to each mixture so as to allow fluorescent labeling of peptide substrates, followed by adding a finishing solution to complete the reaction. The fluorescence level was determined with a Molecular Device at 400 nm (excitation filter) and 520 nm (emission filter). The kinase inhibitory activities of the compounds were calculated in phosphorylation rates between 0˜400% against the control group (staurosporine or each of kinase inhibitor) according to the reference protocol of the kit, and percentage inhibition was determine and plotted against concentration (x-axis) to calculate 50% inhibitory concentration (IC50). The calculation and analysis of IC50 were carried out by using Microsoft Excel.

Experiment [2] addresses T2, BTK (Homo sapiens, UniProt Q06187).
T2 construct: purchased Invitrogen PV3190
Briefly: BTK kinase inhibitory activity, Z-Lyte Kinase Assay Kit. The experiment is classed as biochemical. The following applies: 60 minutes at room temperature. The method, then: as §1, §2

T2 sequence (Q06187 whole entry): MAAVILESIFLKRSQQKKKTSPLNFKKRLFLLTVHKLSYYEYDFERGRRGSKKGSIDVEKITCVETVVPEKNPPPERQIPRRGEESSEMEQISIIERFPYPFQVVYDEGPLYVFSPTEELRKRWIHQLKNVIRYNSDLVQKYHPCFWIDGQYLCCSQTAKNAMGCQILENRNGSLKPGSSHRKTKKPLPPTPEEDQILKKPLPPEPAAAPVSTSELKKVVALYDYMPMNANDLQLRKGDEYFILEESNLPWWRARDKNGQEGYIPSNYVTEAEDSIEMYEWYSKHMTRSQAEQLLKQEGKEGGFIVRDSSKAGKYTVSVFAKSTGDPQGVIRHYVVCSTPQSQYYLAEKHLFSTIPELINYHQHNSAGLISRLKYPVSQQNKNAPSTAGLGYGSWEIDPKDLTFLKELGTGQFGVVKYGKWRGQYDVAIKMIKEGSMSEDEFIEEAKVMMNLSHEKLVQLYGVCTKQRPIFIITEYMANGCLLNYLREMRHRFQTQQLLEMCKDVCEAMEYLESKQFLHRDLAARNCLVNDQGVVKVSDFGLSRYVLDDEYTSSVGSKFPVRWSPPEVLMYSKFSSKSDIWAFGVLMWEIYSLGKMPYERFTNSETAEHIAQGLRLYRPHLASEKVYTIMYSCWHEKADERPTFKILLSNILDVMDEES
T1 sequence (P52333 781-1124 limits assumed): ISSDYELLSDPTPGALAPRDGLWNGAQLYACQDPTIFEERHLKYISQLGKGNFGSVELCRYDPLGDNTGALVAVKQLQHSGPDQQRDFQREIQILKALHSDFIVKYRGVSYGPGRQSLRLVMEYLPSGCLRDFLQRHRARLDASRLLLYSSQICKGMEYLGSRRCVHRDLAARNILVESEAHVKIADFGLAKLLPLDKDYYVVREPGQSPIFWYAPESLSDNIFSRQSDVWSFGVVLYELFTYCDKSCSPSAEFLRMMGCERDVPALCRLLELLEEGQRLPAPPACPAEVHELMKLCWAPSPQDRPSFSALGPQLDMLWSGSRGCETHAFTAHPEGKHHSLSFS

As for `C=CC(=O)Nc1cccc(Oc2cccn3nc(Nc4ccc(N5CCN(C(C)C)CC5)cc4)nc23)c1` [Example 5, N-(3-(2-(4-(4-isopropylpiperazin-1-yl)phenylamino)-[1,2,4]triazolo[1,5-a]pyridin-8-yloxy)phenyl)acrylamide], the IC50 in experiment [1] (class symbol) is not above 100 nM; in experiment [2] (class symbol) it was 500 to 1000 nM.
The matching figures for `C=CC(=O)Nc1cccc(Oc2cccn3nc(Nc4ccc(C(=O)N5CCN(C)CC5)cc4)nc23)c1` [Example 4, N-(3-(2-(4-(4-methylpiperazin-1-carbonyl)phenylamino)-[1,2,4]triazolo[1,5-a]pyridin-8-yloxy)phenyl)acrylamide]: not above 100 nM and 100 to 500 nM.
For the molecule `C=CC(=O)Nc1cccc(Oc2cccn3nc(Nc4ccc(NC5CCN(C)CC5)c(F)c4)nc23)c1` [Example 2, N-(3-(2-(3-fluoro-4-(1-methylpiperidin-4-ylamino)phenylamino)-[1,2,4]triazolo[1,5-a]pyridin-8-yloxy)phenyl)acrylamide], the IC50 was not above 100 nM in experiment [1] (class symbol) and 100 to 500 nM in experiment [2] (class symbol).
Turning to `C=CC(=O)Nc1cccc(Oc2cccn3nc(Nc4ccc(CN(C)C)cc4)nc23)c1` [Example 3, N-(3-(2-(4-((dimethylamino)methyl)phenylamino)-[1,2,4]triazolo[1,5-a]pyridin-8-yloxy)phenyl)acrylamide], the IC50 in experiment [1] (class symbol) was not above 100 nM; in experiment [2] (class symbol), 100 to 500 nM.
Turning to `C=CC(=O)Nc1cccc(Oc2cccn3nc(Nc4ccc(N5CCN(C)CC5)cc4)nc23)c1` [Example 1, N-(3-(2-(4-(4-methylpiperazin-1-yl)phenylamino)-[1,2,4]triazolo[1,5-a]pyridin-8-yloxy)phenyl)acrylamide], the IC50 in experiment [1] (class symbol) is not above 100 nM; in experiment [1] (numeric value in parentheses) it was 9 nM; in experiment [2] (class symbol), not above 100 nM; in experiment [2] (numeric value in parentheses) it was 73 nM.

As usually defined, the IC50 is the concentration at which inhibition is half-maximal.
